Measured values reported in patent EP1157000B1 (Warner-Lambert Company LLC, priority 1999, dated 2001).
pIC50: −log10 of the molar value. Counter-ions that a name gives are not always drawn.

The compounds below were run against T1, rBCATc (Rattus norvegicus, UniProt P54690) (assay: Assay of BCAT ([14C] L-leucine transamination, rat brain supernatant enzyme)). Conditions: 25 µM [14C] L-leucine, 10 mM 2-oxoglutarate, pH 8.3, 10 min, 22 °C; read-out: rBCATc IC50.
T1 construct: The supernatant was dialyzed with at least three changes of dialysis buffer; from tissue; host or cells: rat brain (high-speed supernatant of homogenate, dialyzed)
T1 sequence (P54690 1-411): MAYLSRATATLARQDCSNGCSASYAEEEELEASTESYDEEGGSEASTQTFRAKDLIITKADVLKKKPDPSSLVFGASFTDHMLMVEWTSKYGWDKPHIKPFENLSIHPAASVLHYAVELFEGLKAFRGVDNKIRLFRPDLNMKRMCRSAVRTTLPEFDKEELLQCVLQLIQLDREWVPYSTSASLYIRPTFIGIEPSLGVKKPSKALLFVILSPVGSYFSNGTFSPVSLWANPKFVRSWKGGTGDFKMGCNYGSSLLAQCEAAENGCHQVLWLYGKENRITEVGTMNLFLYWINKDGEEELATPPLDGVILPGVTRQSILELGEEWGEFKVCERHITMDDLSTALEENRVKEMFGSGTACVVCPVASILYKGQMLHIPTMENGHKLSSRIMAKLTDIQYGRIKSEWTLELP
Assay type: biochemical
Procedure: Enzyme preparation: Frozen rat brains were thawed on ice and minced into fine pieces. […] The samples were homogenized in Potters homogenizer (B. Bran Biotech International) at 500 rpm for ten strokes, followed by additional ten strokes at 800 rpm. The homogenates were centrifuged in Beckman J2-M1 centrifuge with rotor JA-20 at 19, 000 rpm for 1 hr. […] The resulting enzyme was stored at -80 °C for further assays.
The solutions for the reaction mixture were made in 10-fold concentrations. After 10 min incubation at room temperature (22 °C), the reaction was stopped by adding 100 µl of 15 mM p-nitrophenyl hydrazine in 2 M HCL. After a few minutes, 1 mL of a toluene-based scintillation liquid (4.5 g of PPO and 0.5 g ofbis-MSB in 1 liter of toluene) was added, the tube was capped and mixed thoroughly with a Vortex mixer. […] Six hundreds µl of organic layer from each tube was placed into scintillation vials, followed by adding 10 ml of scintillation cocktail for counting.

Q: With `COC(CNCC1(CC(=O)O)C[C@H](C)C[C@H](C)C1)OC` (stereo partly drawn) [Example 44, {(3R, 5S)-1-[(2,2-Dimethoxy-ethylamino)-methyl]-3,5-dimethylcyclohexyl}-acetic acid; hydrochloride salt] as the compound, how does the pIC50 read?
A: Its pIC50 is 2.56.

Q: With `C[C@@H]1C[C@H](C)CC(CNCC2CCCC2)(CC(=O)O)C1` (stereo partly drawn) [Example 45, {(3R, 5S)-1-[(Cyclopentylmethyl-amino)-methyl]-3,5-dimethylcyclohexyl}-acetic acid; hydrochloride salt] as the compound, how does the pIC50 read?
A: Its pIC50 is 2.88.

Q: `C[C@@H]1C[C@H](C)CC(CNCC2CCCCC2)(CC(=O)O)C1` (stereo partly drawn) [Example 46, {(3R, 5S)-1-[(Cyclohexylmethyl-amino)-methyl]-3,5-dimethylcyclohexyl}-acetic acid; hydrochloride salt] was tested. Which pIC50 did it give?
A: The pIC50 was 2.95.

Q: With `C[C@@H]1C[C@H](C)CC(CNC2CCCCC2)(CC(=O)O)C1` (stereo partly drawn) [Example 47, ((3R, 5S)-1-Cyclohexylaminomethyl-3,5-dimethyl-cyclohexyl)-acetic acid; hydrochloride salt] as the compound, how does the pIC50 read?
A: The pIC50 was 1.81.

Q: How did the pIC50 turn out when `C[C@@H]1C[C@H](C)CC(CC(=O)O)(CC(=O)O)C1` [Example 48, ((3R,5S)-1-Carboxymethyl-3,5-dimethyl-cyclohexyl)-acetic acid] was run?
A: Its pIC50 is 2.07.

Q: How did the pIC50 turn out when `C[C@@H]1C[C@H](C)C[C@](CO)(CC(=O)O)C1` [Example 49, trans-((3R, 5S)-1-Hydroxymethyl-3,5-dimethyl-cyclohexyl-acetic acid; hydrochloride salt] was run?
A: The pIC50 was 4.08.

Q: `C[C@@H]1C[C@H](C)C[C@@](CO)(CC(=O)O)C1` [Example 50, cis-((3R, 5S)-1-Hydroxymethyl-3,5-dimethyl-cyclohexyl-acetic acid; hydrochloride salt] was tested. Which pIC50 did it give?
A: The pIC50 was 3.07.

Q: How did the pIC50 turn out when `CN(C)CC1(CC(=O)O)CCCCC1` [Example 51, (1-Dimethylaminomethyl-cyclohexyl)-acetic acid; hydrochloride salt] was run?
A: The pIC50 was < 2.00.

Q: `CCCCNCC1(CC(=O)O)CCCCC1` [Example 52, (1-Butylaminomethyl-cyclohexyl)-acetic acid; hydrochloride salt] was tested. Which pIC50 did it give?
A: The pIC50 was 2.60.

Q: How did the pIC50 turn out when `COC(CNCC1(CC(=O)O)CCCCC1)OC` [Example 53, {1-[2,2-Dimethoxy-ethylamino)-methyl]-cyclohexyl}-acetic acid; hydrochloride salt] was run?
A: Its pIC50 is 2.48.

Q: With `CNCC1(CC(=O)O)CCCCC1` [Example 54, (1-methylaminomethyl-cyclohexyl)-acetic acid; hydrochloride salt] as the compound, how does the pIC50 read?
A: Its pIC50 is 3.66.

Q: How did the pIC50 turn out when `CN(Cc1ccccc1)CC1(CC(=O)O)CCCCC1` [Example 55, {1-[(Benzyl-methyl-amino)-methyl]-cycloheayl}-acetic acid; hydrochloride salt] was run?
A: Its pIC50 is 2.03.

Q: `C[C@@H]1C[C@H](C)CC(CO)(CC(=O)O)C1` (stereo partly drawn) [Example 58, ((3R, 5S)-1-Hydroxymethyl-3,5-dimethyl-cyclohexyl)-acetic acid; sodium salt] was tested. Which pIC50 did it give?
A: Its pIC50 is 3.75.

Q: `CCC1CCC(CN)(CC(=O)O)CC1` (stereo not drawn) [Example 60, (1-Aminomethyl-4-ethyl-cyclohexyl)-acetic acid; hydrochloric salt] was tested. Which pIC50 did it give?
A: The pIC50 was 1.94.

Q: With `CCCC1CCC(CN)(CC(=O)O)CC1` (stereo not drawn) [Example 61, (1-Aminomethyl-4-propyl-cyclohexyl)-acetic acid; hydrochloric salt] as the compound, how does the pIC50 read?
A: Its pIC50 is 3.94.
